# Test results from paper PMC6273687, “Design, Synthesis and Biological Evaluation of Novel Primaquine-Cinnamic Acid Conjugates of the Amide and Acylsemicarbazide Type” (Molecules, 2016).
# Columns and labels:
# [1] = system: CEM acute lymphoblastic leukemia cell line; test: Growth inhibition of tumor cell lines in vitro (MTT / cell counting); assay type: cell-based; conditions: Homo sapiens, 96 h, 4 days
# Protocol: (§1) The experiments were carried out on a murine lymphocytic leukemia cell line (L1210) and five human tumor cell lines: CEM, HeLa, NCI-H460, SW 620 and MCF-7. The cells were cultured as monolayers and maintained in Dulbecco′s modified Eagle medium (DMEM) supplemented with 10% fetal bovine serum (FBS), 2 mM L-glutamine, 100 U/mL penicillin and 100 μg/mL streptomycin in a humidified atmosphere with 5% CO2 at 37 °C.
# (§2) The growth inhibition activity of the compounds was assessed as described previously. The cell lines were inoculated onto a series of standard 96-well microtiter plates on day 0, at 1.5 × 10^4 cells/mL (SW 620, H460) to 2.5 × 10^4 cells/mL (MCF-7, CEM and L1210), depending on the growth of the tumor cell line. Test agents were then added in ten-fold dilutions (10^−8 to 10^−4 M) and the cell cultures were then incubated for 3–4 days with 5% CO2 at 37 °C. Working dilutions of the compounds were freshly prepared on the day of testing.
# (§3) After 3 (MCF-7, SW 620, NCI-H460) or 4 days (CEM, L1210), the cell growth rate was evaluated first light microscopically, then by viable cell counting and/or by performing the MTT assay, which detects dehydrogenase activity in live, not dead, cells. The absorbance (A) was measured on a microplate reader at 570 nm. The absorbance is directly proportional to the number of living, metabolically active cells. […] If however, all of the tested concentrations produce PGs exceeding the respective reference level of effect (e.g., PG value of 50), then the highest tested concentration is assigned as the default value, which is preceded by a “>” sign. Minimum two individual experiments were carried out and each test point was performed in quadruplicate.
# [2] = system: HeLa cervical carcinoma cell line; test: as above; assay type: cell-based; conditions: Homo sapiens
# Protocol: as §1, §2, §3
# [3] = system: L1210 murine lymphocytic leukemia cell line; test: as above; assay type: cell-based; conditions: Mus musculus, 96 h; L1210, 4 days
# Protocol: as §1, §2, §3
# [4] = system: SW 620 colon carcinoma cell line; test: as above; assay type: cell-based; conditions: Homo sapiens, 72 h; SW 620, 3 days
# Protocol: as §1, §2, §3
# [5] = system: MCF-7 breast carcinoma cell line; test: as above; assay type: cell-based, human; conditions: for IC50: MCF-7, 3 days
# Protocol: as §1, §2, §3
# [6] = system: NCI-H460 lung carcinoma cell line; test: as above; assay type: cell-based, human; conditions: NCI-H460, 3 days
# Protocol: as §1, §2, §3
# [7] = Interaction with the stable radical DPPH (reducing ability)
# Protocol: To a solution of DPPH in absolute ethanol the appropriate volume of the compounds (50 or 100 µM final concentrations) dissolved in DMSO was added. The absorbance was recorded at 517 nm after 20 and 60 min at room temperature. The experiments were repeated at least in triplicate and the standard deviation of absorbance was less than 10% of the mean. NDGA was used under the same experimental conditions as a reference compound.
# [8] = target: T1, soybean lipoxygenase (LOX) (Glycine max, UniProt P08170); test: LOX inhibition study in vitro; assay type: biochemical; conditions: for IC50: values in parentheses in Table 3
# T1 construct: purchased Sigma-Aldrich
# T1 sequence (P08170 1-839): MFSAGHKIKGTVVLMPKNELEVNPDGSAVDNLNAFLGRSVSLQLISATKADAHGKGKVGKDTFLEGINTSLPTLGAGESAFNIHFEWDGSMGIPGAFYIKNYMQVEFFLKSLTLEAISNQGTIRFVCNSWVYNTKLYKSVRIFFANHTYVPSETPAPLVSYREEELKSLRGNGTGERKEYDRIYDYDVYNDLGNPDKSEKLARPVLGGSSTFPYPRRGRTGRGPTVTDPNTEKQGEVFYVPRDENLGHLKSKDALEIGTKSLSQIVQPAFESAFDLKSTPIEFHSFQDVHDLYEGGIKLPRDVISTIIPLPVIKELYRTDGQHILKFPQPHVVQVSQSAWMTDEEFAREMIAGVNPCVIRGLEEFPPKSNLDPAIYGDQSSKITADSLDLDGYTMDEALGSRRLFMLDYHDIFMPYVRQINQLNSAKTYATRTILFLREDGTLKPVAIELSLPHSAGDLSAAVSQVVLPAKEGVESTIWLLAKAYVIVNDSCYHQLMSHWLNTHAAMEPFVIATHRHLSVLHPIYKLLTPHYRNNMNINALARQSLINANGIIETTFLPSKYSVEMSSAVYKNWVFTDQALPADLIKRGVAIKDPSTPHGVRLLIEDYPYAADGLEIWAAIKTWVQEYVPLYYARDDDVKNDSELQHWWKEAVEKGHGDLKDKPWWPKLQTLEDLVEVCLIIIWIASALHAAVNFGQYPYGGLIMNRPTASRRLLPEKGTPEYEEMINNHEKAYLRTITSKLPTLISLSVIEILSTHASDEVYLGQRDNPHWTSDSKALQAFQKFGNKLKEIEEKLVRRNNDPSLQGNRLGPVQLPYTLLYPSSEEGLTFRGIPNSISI
# Protocol: LOX inhibitory assay in vitro was accomplished as described previously. The test compounds (stock solutions 10 mM in DMSO) were incubated at room temperature with sodium linoleate (c = 0.1 mM) and 0.2 mL of LOX enzyme solution (1/9 × 10^−4 m/V in saline). The conversion of sodium linoleate to 13-hydroperoxylinoleic acid was measured at 234 nm and compared with the reference inhibitor. Several concentrations were used for the IC50 determination.
# [9] = Inhibition of linoleic acid peroxidation (AAPH-induced); conditions: 5 × 10^−5 M
# Protocol: For initiating the lipid peroxidation free radical AAPH was used. Final solution in the UV cuvette consisted of 10 μL linoleate sodium solution (c = 16 mM), 0.93 mL phosphate buffer (c = 0.05 M), pH 7.4, thermostated at 37 °C. 50 μL AAPH solution (c = 40 mM) and 10 μL of the tested compounds were added. The experiment was performed at 37 °C under air. The oxidation of linoleic acid sodium salt was monitored at 234 nm. The assays were repeated at least in triplicate and the standard deviation of absorbance was less than 10% of the mean. Trolox was used under the same experimental conditions as a reference compound.
# human coronavirus (229E) = test: microbe, parasite or virus in culture; assay type: cell-based; conditions: read-out: EC50 (concentration required to reduce virus-induced cytopathogenicity by 50%), HEL cell cultures
# colon carcinoma HCT 116 = test: Growth inhibition of tumor cell lines in vitro (reference drugs); assay type: cell-based; conditions: colon carcinoma HCT 116 (footnote b, printed in SW 620 column)
inhibition at 100 µM ([8]; 1 × 10^−4 M) [%],SMILES,IC50 [1] [µM],IC50 [2] [µM],IC50 [3] [µM],IC50 [4] [µM],"IC50 ([5]; Homo sapiens, MCF7, 72 h) [µM]","IC50 ([6]; Homo sapiens, 72 h) [µM]","DPPH-reducing ability RA (%) ([7]; 1 × 10^−4 M, 20 min)","DPPH-reducing ability RA (%) ([7]; 1 × 10^−4 M, 60 min)","DPPH-reducing ability RA (%) ([7]; 5 × 10^−5 M, 20 min)","DPPH-reducing ability RA (%) ([7]; 5 × 10^−5 M, 60 min)",LP Inhibition (%) [9] [%],IC50 [8] [µM],EC50 (human coronavirus (229E)) [µM],fold higher activity than PQ ([5]; MCF-7) [fold],fold higher activity than the anticancer reference drugs ([5]; MCF-7),IC50 [5] [µM],IC50 [6] [µM],IC50 (colon carcinoma HCT 116) [µM]
36,"COc1cc(NC(C)CCCNC(=O)NNC(=O)/C=C/c2ccccc2)c2ncccc2c1 (stereo not shown) [7a, (E)-1-Cinnamoyl-4-(4-(6-methoxyquinolin-8-ylamino)pentyl)semicarbazide]",3 ± 0.5,12 ± 2,7 ± 3.1,> 100,2.5 ± 1.9,> 100,39,100,49,100,83,,,,,,,
,"COc1cc(NC(C)CCCNC(=O)NNC(=O)/C(C)=C/c2ccccc2)c2ncccc2c1 (stereo not shown) [7b, (E)-4-(4-(6-Methoxyquinolin-8-ylamino)pentyl)-1-(2-methyl-3-phenylacryloyl)semicarbazide]",25 ± 14,47 ± 6,53 ± 5,9.5 ± 0.9,16 ± 9,50 ± 4,84,99,42,100,62,100,15,,,,,
,"COc1cc(NC(C)CCCNC(=O)NNC(=O)/C=C/c2ccc(OC)c(OC)c2)c2ncccc2c1 (stereo not shown) [7d, (E)-1-(3-(3,4-Dimethoxyphenyl)acryloyl)-4-(4-(6-methoxyquinolin-8-ylamino)pentyl)semicarbazide]",93 ± 46,92 ± 30,40 ± 14,25 ± 9,1.9 ± 1.8,32 ± 21,100,100,55,100,88,10,,,,,,
,"COc1cc(NC(C)CCCNC(=O)NNC(=O)/C=C/c2cc(OC)c(OC)c(OC)c2)c2ncccc2c1 (stereo not shown) [7e, (E)-4-(4-(6-Methoxyquinolin-8-ylamino)pentyl)-1-(3-(3,4,5-trimethoxyphenyl)acryloyl)semicarbazide]",54 ± 12,70 ± 2,57 ± 5,48 ± 17,1.4 ± 0.1,63 ± 2,46,100,60,100,86,43,,,,,,
,"COc1cc(NC(C)CCCNC(=O)NNC(=O)/C=C/c2ccc3c(c2)OCO3)c2ncccc2c1 (stereo not shown) [7f, (E)-1-(3-(Benzo[d][1,3]dioxo-5-yl)acryloyl)-4-(4-(6-methoxyquinolin-8-ylamino)pentyl)semicarbazide]",7.4 ± 2.1,31,4.8 ± 0.2,17 ± 5,0.6 ± 0.3,27 ± 3,74,100,47,100,88,55,12.5,,,,,
,"COc1cc(NC(C)CCCNC(=O)NNC(=O)/C=C/c2ccccc2F)c2ncccc2c1 (stereo not shown) [7h, (E)-1-(3-(2-Fluorophenyl)acryloyl)-4-(4-(6-methoxyquinolin-8-ylamino)pentyl)semicarbazide]",15 ± 2,46 ± 2,40 ± 4,12 ± 4,5.9 ± 2,12 ± 0.2,52,100,61,100,67,41,,,,,,
,"COc1cc(NC(C)CCCNC(=O)NNC(=O)/C=C/c2cccc(C(F)(F)F)c2)c2ncccc2c1 (stereo not shown) [7i, (E)-4-(4-(6-Methoxyquinolin-8-ylamino)pentyl)-1-(3-(3-(trifluoromethyl)phenyl)acryloyl)semicarbazide]",10 ± 1,10 ± 1,9.4 ± 4.8,16 ± 5,2.3 ± 0.2,18 ± 3,96,73,71,100,84,42.5,7.9,,,,,
,"COc1cc(NC(C)CCCNC(=O)NNC(=O)/C=C/c2ccc(C(F)(F)F)cc2)c2ncccc2c1 (stereo not shown) [7j, (E)-4-(4-(6-Methoxyquinolin-8-ylamino)pentyl)-1-(3-(4-(trifluoromethyl)phenyl)acryloyl)semicarbazide]",9.4 ± 5.6,28 ± 12,27,40 ± 5,0.03 ± 0.02,34 ± 2,100,95,42,79,50,35,9.5,900,100-to 500 fold,,,
,"COc1cc(NC(C)CCCNC(=O)NNC(=O)/C=C/c2cc(C(F)(F)F)cc(C(F)(F)F)c2)c2ncccc2c1 (stereo not shown) [7k, (E)-1-(3-(3,5-Bis(trifluoromethyl)phenyl)acryloyl)-4-(4-(6-methoxyquinolin-8-ylamino)pentyl)semicarbazide]",17 ± 5,30 ± 23,30 ± 17,32 ± 4,3.2 ± 0.8,48 ± 2,98,97,72,100,55,67.5,8.4,,,,,
,"N.N.[Cl][Pt][Cl] [CIS, cisplatin, reference compound]",,,,,,,,,,,,,,,,10 ± 1,1 ± 0.1,7 ± 2
